According to patent US20250179047A1, “5-[7-(3,4-DIHYDRO-1H-ISOQUINOLINE-2-CARBONYL)-1,2,3,4 TETRAHYDROISOQUINOLIN-6-YL]-1H-PYRROLE-3-CARBOXAMIDE DERIVATIVES, PHARMACEUTICAL COMPOSITIONS CONTAINING THEM AND THEIR USES AS PRO-APOPTOTIC AGENTS” (LES LABORATOIRES SERVIER, priority 2022, published 2025):

Assays:
[1] = test system: BCL2 G101V; assay: TR-FRET competitive binding assay, BCL2 G101V; design: species or system human; details: ratio Ki BCL2 G101V / Ki BCL2 WT
In short: (§1)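 Competitive TR-FRET displacement of fluorescein-PUMA peptide (2 or 20 nM) from 0.5 nM terbium-labelled N-terminal Halo-fusion BCL2 (1-207, wild type or mutant) or BCLXL (2-196), expressed in E. coli. Buffer 50 mM Hepes pH 7.5, 150 mM NaCl, 5% DMSO; 2 h at 23°C. 520/495 nm ratio fitted over 11 points for IC50, converted to Ki.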

[2] = molecular target: BCL2 G101V (Homo sapiens, UniProt P10415, G101V); assay: TR-FRET competitive binding assay, BCL2 G101V; details: BCL2 G101V; Ki determined from IC50; read-out: TR_FRET EKI_Bcl2 G101V
In short: as §1

[3] = test system: KMS-12-PE Bcl-2 G101V; assay: In vitro cytotoxicity CellTiter-Glo 48 h, KMS-12-PE Bcl-2 G101V; assay type: cell-based; details: for Ratio (G101V/WT): C50 KMS-12-PE Bcl-2 G101V over C50 KMS-12-PE Bcl-2 WT; for IC50: CellTiter-Glo, 48 h, C50 = concentration needed to reach 50% of the cellular viability
Protocol: KMS-12-PE (ACC 606) were purchased from the Leibniz-Institute DSMZ (Braunschweig, Germany) and were grown at 37° C. in a humidified atmosphere with […] in media recommended by the suppliers. Lentiviral particles containing Bcl-2 wild type (also named “Bcl2 WT”) and Bcl-2 mutated on G101V (also named “Bcl2 G101V”) were cloned into pcLV-CMV-DEST-IRES-TagRFP. Lentiviral particles (1×106) were mixed with Polybrene at 8 µg/ml and transduced by spinoculation for 1 h at 32° C. and incubated overnight. After 8 days, TagRFP positive-cells were sorted by FACS. BCL2 expression was monitored by immunoblotting using anti-Flag and anti-BCL2 antibodies.
Cellular viability was monitored with the cell viability assay (CellTiter-Glo®) on KMS-12-PE WT and G101V cell lines. The CellTiter-Glo® (CTG) Luminescent Cell Viability Assay (from Promega) is a homogeneous method to determine the number of viable cells in culture based on quantitation of the ATP present, which signals the presence of metabolically active cells.
Dose response of compounds are performed with 10 mM stock solutions (DMSO), 11-points curve, in a 384-well compound plate. The assay plate is prepared by stamping 40 nL from compound dilution plate of all different concentrations (e.g. 10 mM to have final […] assay test) into a cell culture microplate, using Echo acoustic liquid handling (Labcyte, Beckman). 40 μl of cell solution is added and cells are incubated with compounds for 48 h at 37° C., 5% CO2. CTG was added to the cells (according to the manufacturer instructions) and luminescence intensity was recorded using the Pherastar plate reader (BMG).
This assay provides in vitro cellular potency of the tested Bcl-2 inhibitors, measuring the C50, defined as the concentration needed to reach 50% of the cellular viability.

[4] = molecular target: BCLXL WT (Homo sapiens (Human), UniProt Q07817); assay: TR-FRET competitive binding assay, BCLXL WT; details: for Ki: BCLXL WT, Ki determined from IC50, read-out: TR_FRET EKI BclxL; for TR_FRET EKI BCLxL/WT selectivty ratio: ratio Ki BCLxL / Ki BCL2 WT
Chain of BCLXL WT (Q07817 other isoform, or with tags, fused parts or gaps): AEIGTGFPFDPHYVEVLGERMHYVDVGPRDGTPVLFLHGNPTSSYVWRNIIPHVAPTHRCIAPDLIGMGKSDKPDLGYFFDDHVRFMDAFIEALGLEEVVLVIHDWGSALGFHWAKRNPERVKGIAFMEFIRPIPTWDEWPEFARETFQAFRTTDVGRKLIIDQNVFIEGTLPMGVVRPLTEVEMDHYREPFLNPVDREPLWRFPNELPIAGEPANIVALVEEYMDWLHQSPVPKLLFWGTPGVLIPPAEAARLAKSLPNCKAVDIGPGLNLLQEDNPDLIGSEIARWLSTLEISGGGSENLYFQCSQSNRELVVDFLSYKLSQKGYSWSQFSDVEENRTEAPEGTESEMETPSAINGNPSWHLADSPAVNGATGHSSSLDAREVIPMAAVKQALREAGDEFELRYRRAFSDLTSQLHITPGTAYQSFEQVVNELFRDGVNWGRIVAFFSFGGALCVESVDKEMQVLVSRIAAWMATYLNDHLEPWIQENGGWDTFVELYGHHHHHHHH
In short: as §1

[5] = test system: KMS-12-PE Bcl-2 WT; assay: In vitro cytotoxicity CellTiter-Glo 48 h, KMS-12-PE Bcl-2 WT; assay type: cell-based; details: C50 = concentration needed to reach 50% of the cellular viability
In short: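 KMS-12-PE myeloma cells were lentivirally transduced with wild-type or G101V-mutant Bcl-2 and sorted by TagRFP. They were exposed to compounds as 11-point dose responses for 48 h at 37 °C, 5% CO2. Viability was read by CellTiter-Glo ATP luminescence, and C50 was the concentration giving 50% viability.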

[6] = molecular target: BCL2 WT (Homo sapiens (Human), UniProt P10415); assay: TR-FRET competitive binding assay, BCL2 WT; details: Ki determined from IC50, read-out: TR_FRET EKI_Bcl2 WT
In short: as §1

[7] = molecular target: BCL2 D103Y (Homo sapiens, UniProt P10415, D103Y); assay: TR-FRET competitive binding assay, BCL2 D103Y; details: Ki determined from IC50, read-out: TR_FRET EKI_Bcl2 D103Y
In short: as §1

SMILES	TR_FRET EKI G101V/WT selectivty ratio [1]	Ki [2] [nM]	Ki [4] [nM]	TR_FRET EKI BCLxL/WT selectivty ratio [4]	Ki [6] [nM]	Ki [7] [nM]	Ratio (G101V/WT) [3]	IC50 [3] [µM]	IC50 [5] [µM]	IC50 ([3]; Homo sapiens, KMS-12-PE) [µM]	IC50 ([5]; Homo sapiens, KMS-12-PE) [µM]
Cc1c(N(C(=O)c2cc(-c3cc4c(cc3C(=O)N3Cc5ccccc5C[C@H]3C)CN(C(=O)Cc3ccc(Oc5ccccc5)cc3)CC4)n(C)c2C)c2ccc(O)cc2)cc(C#N)n1C [Example 10, N-(5-cyano-1,2-dimethyl-1H-pyrrol-3-yl)-N-(4-hydroxyphenyl)-1,2-dimethyl-5-{7-[(3R)-3-methyl-1,2,3,4-tetrahydroisoquinoline-2-carbonyl]-2-[2-(4-phenoxyphenyl)acetyl]-1,2,3,4-tetrahydroisoquinolin-6-yl}-1H-pyrrole-3-carboxamide]	2.6	5.7	31.2	14.2	2.2	2.98	4.58			0.0641	0.014
Cc1c(N(C(=O)c2cc(-c3cc4c(cc3C(=O)N3Cc5ccccc5C[C@H]3C)CN(C(=O)Cc3ccc(F)cc3F)CC4)n(C)c2C)c2ccc(O)cc2)cc(C#N)n1C [Example 11, N-(5-cyano-1,2-dimethyl-1H-pyrrol-3-yl)-5-{2-[2-(2,4-difluorophenyl)acetyl]-7-[(3R)-3-methyl-1,2,3,4-tetrahydroisoquinoline-2-carbonyl]-1,2,3,4-tetrahydroisoquinolin-6-yl}-N-(4-hydroxyphenyl)-1,2-dimethyl-1H-pyrrole-3-carboxamide]	3.8	1.3	4.8	14.1	0.34	0.55	7.05			0.0249	0.0035
Cc1c(N(C(=O)c2cc(-c3cc4c(cc3C(=O)N3Cc5ccccc5C[C@H]3C)CN(C(=O)Cc3ccccc3)CC4)n(C)c2C)c2ccc(O)cc2F)cc(C#N)n1C [Example 13, N-(5-cyano-1,2-dimethyl-1H-pyrrol-3-yl)-N-(2-fluoro-4-hydroxyphenyl)-1,2-dimethyl-5-{7-[(3R)-3-methyl-1,2,3,4-tetrahydroisoquinoline-2-carbonyl]-2-(2-phenylacetyl)-1,2,3,4-tetrahydroisoquinolin-6-yl}-1H-pyrrole-3-carboxamide]	2.0	2	4.6	4.6	1	2.35	5.37			0.0704	0.0131
Cc1c(N(C(=O)c2cc(-c3cc4c(cc3C(=O)N3Cc5ccccc5C[C@H]3C)CN(C(=O)C3Cc5ccccc5O3)CC4)n(C)c2C)c2ccc(O)cc2)cc(C#N)n1C (stereo partly drawn) [Example 20, N-(5-cyano-1,2-dimethylpyrrol-3-yl)-5-{2-[(2,3-dihydro-1-benzofuran-2-yl)carbonyl]-7-{[(3R)-3-methyl-3,4-dihydro-1H-isoquinolin-2-yl]carbonyl}-3,4-dihydro-1H-isoquinolin-6-yl}-N-(4-hydroxyphenyl)-1,2-dimethylpyrrole-3-carboxamide]	5.0	2.7	6.6	12.5	0.53	0.68	6.74			0.0681	0.0101
Cc1c(C(=O)N(c2ccc(O)cc2)c2cc(C#N)n(CCN(C)C3CC3)c2C)cc(-c2cc3c(cc2C(=O)N2Cc4ccccc4C[C@H]2C)CN(C(=O)Cc2ccccc2)CC3)n1C [Example 22, N-[5-cyano-1-[2-[cyclopropyl(methyl)amino]ethyl]-2-methyl-pyrrol-3-yl]-N-(4-hydroxyphenyl)-1,2-dimethyl-5-[7-[(3R)-3-methyl-3,4-dihydro-1H-isoquinoline-2-carbonyl]-2-(2-phenylacetyl)-3,4-dihydro-1H-isoquinolin-6-yl]pyrrole-3-carboxamide]	5.0	1	2.3	11.5	0.2	0.82	8.47			0.0864	0.0102
Cc1c(N(C(=O)c2cc(-c3cc4c(cc3C(=O)N3Cc5ccccc5C[C@H]3C)CN(C(=O)Cc3ccc(Br)cc3F)CC4)n(C)c2C)c2ccc(O)cc2)cc(C#N)n1C [Example 24, 5-{2-[2-(4-bromo-2-fluorophenyl)acetyl]-7-[(3R)-3-methyl-1,2,3,4-tetrahydroisoquinoline-2-carbonyl]-1,2,3,4-tetrahydroisoquinolin-6-yl}-N-(5-cyano-1,2-dimethyl-1H-pyrrol-3-yl)-N-(4-hydroxyphenyl)-1,2-dimethyl-1H-pyrrole-3-carboxamide]	3.4	1.8	6.1	11.5	0.53	1.02	7.19			0.0423	0.0059

The remaining molecules from weak to strong by Ki [2], led by results:

TR_FRET EKI G101V/WT selectivty ratio [1]	Ki [2] [nM]	Ki [4] [nM]	TR_FRET EKI BCLxL/WT selectivty ratio [4]	Ki [6] [nM]	Ki [7] [nM]	SMILES	Ratio (G101V/WT) [3]	IC50 [3] [µM]	IC50 [5] [µM]	IC50 ([3]; Homo sapiens, KMS-12-PE) [µM]	IC50 ([5]; Homo sapiens, KMS-12-PE) [µM]
9.1	6.1	8.4	12.5	0.67	3.01	Cc1c(N(C(=O)c2cc(-c3cc4c(cc3C(=O)N3Cc5ccccc5C[C@H]3C)CN(C(=O)c3n[nH]c5ccccc35)CC4)n(C)c2C)c2ccc(O)cc2)cc(C#N)n1C [Example 15, N-(5-cyano-1,2-dimethyl-1H-pyrrol-3-yl)-N-(4-hydroxyphenyl)-5-[2-(1H-indazole-3-carbonyl)-7-[(3R)-3-methyl-1,2,3,4-tetrahydroisoquinoline-2-carbonyl]-1,2,3,4-tetrahydroisoquinolin-6-yl]-1,2-dimethyl-1H-pyrrole-3-carboxamide]	4.3			0.0714	0.0166
4.8	1.9	7.4	18.5	0.4	0.97	Cc1c(N(C(=O)c2cc(-c3cc4c(cc3C(=O)N3Cc5ccccc5C[C@H]3C)CN(C(=O)Cc3ccc(Cl)cc3F)CC4)n(C)c2C)c2ccc(O)cc2)cc(C#N)n1C [Example 19, 5-{2-[2-(4-chloro-2-fluorophenyl)acetyl]-7-[(3R)-3-methyl-1,2,3,4-tetrahydroisoquinoline-2-carbonyl]-1,2,3,4-tetrahydroisoquinolin-6-yl}-N-(5-cyano-1,2-dimethyl-1H-pyrrol-3-yl)-N-(4-hydroxyphenyl)-1,2-dimethyl-1H-pyrrole-3-carboxamide]	6.91			0.0423	0.0061
7.0	0.5	3.1	40.8	0.08	0.34	Cc1c(N(C(=O)c2cc(-c3cc4c(cc3C(=O)N3Cc5ccccc5C[C@H]3CN3CCCCC3)CN(C(=O)Cc3ccc(OCCC5COCCO5)cc3F)CC4)n(C)c2C)c2ccc(O)cc2)cc(C#N)n1C (single isomer, unassigned) [Example 175, N-(5-cyano-1,2-dimethyl-pyrrol-3-yl)-5-[2-[2-[4-[2-((2R or S)-1,4-dioxan-2-yl)ethoxy]-2-fluoro-phenyl]acetyl]-7-[(3S)-3-(1-piperidylmethyl)-3,4-dihydro-1H-isoquinoline-2-carbonyl]-3,4-dihydro-1H-isoquinolin-6-yl]-N-(4-hydroxyphenyl)-1,2-dimethyl-pyrrole-3-carboxamide]	6.335	0.0261	0.0041		
